The test system of assay [1] is Dual specificity mitogen-activated protein kinase kinase 1 (Homo sapiens), Q02750 [S218D,S222D]. As to the kind of experiment: (§1) Selectivity interaction (LanthaScreen Eu Kinase Binding Assay) EUB0001632a MAP2K1. The settings on record: at 10 µM.
Assay [2] addresses T1, Dual specificity mitogen-activated protein kinase kinase 1 (Homo sapiens, UniProt Q02750). Described as §1. The settings on record: at 10 µM.
The target in assay [3] is Wee1-like protein kinase (Homo sapiens) (UniProt P30291). Nature of the assay: Selectivity interaction (Ambit KINOMEscan and KiNATiv profiling in Jurkat cells) EUB0000090b WEE1. In kind it is cell-based. The settings on record: at 1 µM.
The target of assay [4] is Calcium/calmodulin-dependent protein kinase type 1G (Homo sapiens) (UniProt Q96NX5). As to the kind of experiment: Selectivity interaction (KinomeScan (DiscoverX)) EUB0000666a CAMK1G. The settings on record: at 10 µM.
Assay [5] concerns the target Myosin-IIIa (Homo sapiens) (UniProt Q8NEV4). Nature of the assay: Selectivity interaction (KinomeScan (DiscoverX)) EUB0001079a MYO3A. The conditions noted are these: at 1 µM.
Assay [6] has as its target Dual specificity protein kinase CLK4 (Homo sapiens, UniProt Q9HAZ1). As to the kind of experiment: Selectivity interaction (KinomeScan (DiscoverX)) EUB0001619a CLK4. The conditions noted are these: at 1 µM.
The target in assay [7] is T2, Mitogen-activated protein kinase kinase kinase 15 (Homo sapiens) (UniProt Q6ZN16).
T2 sequence (whole entry): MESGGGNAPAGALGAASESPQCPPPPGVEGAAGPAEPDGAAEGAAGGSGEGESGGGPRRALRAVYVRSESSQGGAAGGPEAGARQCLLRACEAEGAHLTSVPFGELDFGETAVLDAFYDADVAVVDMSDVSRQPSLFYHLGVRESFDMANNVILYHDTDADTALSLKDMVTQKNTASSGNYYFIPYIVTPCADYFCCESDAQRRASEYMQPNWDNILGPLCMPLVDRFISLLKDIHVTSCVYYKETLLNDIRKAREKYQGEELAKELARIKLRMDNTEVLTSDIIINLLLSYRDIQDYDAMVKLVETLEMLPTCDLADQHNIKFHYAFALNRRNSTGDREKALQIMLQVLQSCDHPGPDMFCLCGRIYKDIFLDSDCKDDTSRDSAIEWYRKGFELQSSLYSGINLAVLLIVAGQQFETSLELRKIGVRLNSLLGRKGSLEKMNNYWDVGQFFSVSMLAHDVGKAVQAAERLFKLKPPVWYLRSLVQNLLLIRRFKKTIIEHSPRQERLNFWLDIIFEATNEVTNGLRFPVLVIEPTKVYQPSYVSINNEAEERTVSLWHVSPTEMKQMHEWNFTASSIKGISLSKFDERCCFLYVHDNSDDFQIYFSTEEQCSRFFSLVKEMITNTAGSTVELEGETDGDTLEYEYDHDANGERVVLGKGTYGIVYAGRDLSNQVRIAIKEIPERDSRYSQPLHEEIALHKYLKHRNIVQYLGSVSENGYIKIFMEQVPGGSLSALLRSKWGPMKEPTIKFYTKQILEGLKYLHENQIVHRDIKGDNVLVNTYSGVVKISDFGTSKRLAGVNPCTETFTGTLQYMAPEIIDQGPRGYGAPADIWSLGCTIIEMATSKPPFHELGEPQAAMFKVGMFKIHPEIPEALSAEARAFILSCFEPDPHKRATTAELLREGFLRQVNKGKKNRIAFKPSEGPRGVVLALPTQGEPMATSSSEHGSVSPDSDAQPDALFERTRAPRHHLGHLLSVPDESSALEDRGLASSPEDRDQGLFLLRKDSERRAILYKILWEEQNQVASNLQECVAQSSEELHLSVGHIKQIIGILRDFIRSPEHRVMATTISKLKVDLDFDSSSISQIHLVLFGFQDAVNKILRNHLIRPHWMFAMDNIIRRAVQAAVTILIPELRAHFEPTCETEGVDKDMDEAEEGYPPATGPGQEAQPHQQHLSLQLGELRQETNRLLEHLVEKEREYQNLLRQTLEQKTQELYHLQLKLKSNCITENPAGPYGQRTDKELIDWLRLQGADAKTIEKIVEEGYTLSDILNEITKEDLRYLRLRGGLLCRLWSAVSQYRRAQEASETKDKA
Nature of the assay: Selectivity interaction (KinomeScan (DiscoverX)) EUB0001619a MAP3K15. The settings on record: at 1 µM.

Assay [8] deals with Dual specificity tyrosine-phosphorylation-regulated kinase 1B (Homo sapiens, UniProt Q9Y463). Nature of the assay: Selectivity interaction (Kinase panel (Invitrogen)) EUB0000639a DYRK1B. The conditions noted are these: at 200 nM.
Assay [9] deals with Insulin-like growth factor 1 receptor (Homo sapiens, UniProt P08069). As to the kind of experiment: Selectivity interaction (Kinase panel (Invitrogen)) EUB0000639a IGF1R. The conditions noted are these: at 200 nM.
Assay [10] deals with Calcium/calmodulin-dependent protein kinase type 1D (Homo sapiens) (UniProt Q8IU85). As to the kind of experiment: Selectivity interaction (ProQinase) EUB0000171b CAMK1D.
In assay [11] the target is T3, Protein kinase C epsilon type (Homo sapiens) (UniProt Q02156).
T3 sequence (whole entry): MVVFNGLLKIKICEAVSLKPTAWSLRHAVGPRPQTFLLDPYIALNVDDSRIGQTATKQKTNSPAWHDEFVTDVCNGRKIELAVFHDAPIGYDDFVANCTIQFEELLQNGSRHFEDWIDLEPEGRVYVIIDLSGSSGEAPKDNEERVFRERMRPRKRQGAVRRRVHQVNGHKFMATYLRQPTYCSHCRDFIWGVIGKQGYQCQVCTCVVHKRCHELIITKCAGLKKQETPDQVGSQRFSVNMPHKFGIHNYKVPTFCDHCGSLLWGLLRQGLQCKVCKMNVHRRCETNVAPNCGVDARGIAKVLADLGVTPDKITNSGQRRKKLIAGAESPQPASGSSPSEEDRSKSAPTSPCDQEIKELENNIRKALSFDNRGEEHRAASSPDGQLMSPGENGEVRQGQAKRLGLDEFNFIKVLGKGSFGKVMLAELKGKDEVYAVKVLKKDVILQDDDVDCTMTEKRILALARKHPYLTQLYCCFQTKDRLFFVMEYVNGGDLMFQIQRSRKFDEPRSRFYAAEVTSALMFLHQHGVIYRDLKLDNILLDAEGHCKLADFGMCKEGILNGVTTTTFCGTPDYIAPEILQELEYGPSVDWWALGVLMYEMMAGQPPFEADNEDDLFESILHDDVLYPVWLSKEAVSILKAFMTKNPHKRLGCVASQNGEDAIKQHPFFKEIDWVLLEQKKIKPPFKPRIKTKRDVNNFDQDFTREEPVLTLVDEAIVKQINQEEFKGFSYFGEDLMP
Nature of the assay: Selectivity interaction (ProQinase) EUB0000171b PRKCE.

In assay [12] the target is Glutamate receptor 1 (Homo sapiens) (UniProt P42261). Nature of the assay: Selectivity interaction (Eurofins CEREP Diversity Profile (receptors and ion channels)) EUB0000279b GRIA1. The conditions noted are these: at 10 µM.
The target of assay [13] is Epithelial discoidin domain-containing receptor 1 (Homo sapiens) (UniProt Q08345). Nature of the assay: Selectivity interaction (KinomeScan (DiscoverX)) EUB0000092b DDR1. The settings on record: at 10 µM.
The target of assay [14] is Serine/threonine-protein kinase 38-like (Homo sapiens) (UniProt Q9Y2H1). As to the kind of experiment: Selectivity interaction (KinomeScan (DiscoverX)) EUB0000618a STK38L. The conditions noted are these: at 10 µM.
In assay [15] the target is T1, Dual specificity mitogen-activated protein kinase kinase 1. Nature of the assay: Selectivity interaction (KinomeScan (DiscoverX)) EUB0000595a MAP2K1. The settings on record: at 10 µM.

The record followed here is ChEMBL document CHEMBL5465560, “Selectivity Literature for EUbOPEN Chemogenomic Library” (2024).

Chain of Calcium/calmodulin-dependent protein kinase type 1D (Homo sapiens) (Q8IU85 whole entry, looked up): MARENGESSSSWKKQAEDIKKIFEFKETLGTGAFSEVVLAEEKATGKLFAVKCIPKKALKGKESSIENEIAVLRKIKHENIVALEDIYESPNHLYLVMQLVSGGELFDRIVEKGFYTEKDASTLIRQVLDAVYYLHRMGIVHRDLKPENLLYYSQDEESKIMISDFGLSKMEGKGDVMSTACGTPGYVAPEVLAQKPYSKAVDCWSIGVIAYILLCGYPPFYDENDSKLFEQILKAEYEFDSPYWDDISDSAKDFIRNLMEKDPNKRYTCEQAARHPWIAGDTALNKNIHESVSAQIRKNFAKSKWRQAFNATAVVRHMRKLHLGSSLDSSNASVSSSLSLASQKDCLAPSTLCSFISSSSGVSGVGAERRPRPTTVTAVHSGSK
T1 sequence (Q02750 whole entry): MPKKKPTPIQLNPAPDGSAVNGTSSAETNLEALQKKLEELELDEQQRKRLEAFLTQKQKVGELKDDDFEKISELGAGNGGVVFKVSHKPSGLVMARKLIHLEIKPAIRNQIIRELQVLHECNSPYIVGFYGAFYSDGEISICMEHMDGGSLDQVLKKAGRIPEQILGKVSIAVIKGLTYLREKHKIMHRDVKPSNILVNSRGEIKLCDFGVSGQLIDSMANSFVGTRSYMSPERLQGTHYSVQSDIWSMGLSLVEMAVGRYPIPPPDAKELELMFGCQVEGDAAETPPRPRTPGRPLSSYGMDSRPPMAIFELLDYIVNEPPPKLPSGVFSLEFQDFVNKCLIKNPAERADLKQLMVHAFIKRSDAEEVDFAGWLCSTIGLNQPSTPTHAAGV
Chain of Myosin-IIIa (Homo sapiens) (Q8NEV4 whole entry): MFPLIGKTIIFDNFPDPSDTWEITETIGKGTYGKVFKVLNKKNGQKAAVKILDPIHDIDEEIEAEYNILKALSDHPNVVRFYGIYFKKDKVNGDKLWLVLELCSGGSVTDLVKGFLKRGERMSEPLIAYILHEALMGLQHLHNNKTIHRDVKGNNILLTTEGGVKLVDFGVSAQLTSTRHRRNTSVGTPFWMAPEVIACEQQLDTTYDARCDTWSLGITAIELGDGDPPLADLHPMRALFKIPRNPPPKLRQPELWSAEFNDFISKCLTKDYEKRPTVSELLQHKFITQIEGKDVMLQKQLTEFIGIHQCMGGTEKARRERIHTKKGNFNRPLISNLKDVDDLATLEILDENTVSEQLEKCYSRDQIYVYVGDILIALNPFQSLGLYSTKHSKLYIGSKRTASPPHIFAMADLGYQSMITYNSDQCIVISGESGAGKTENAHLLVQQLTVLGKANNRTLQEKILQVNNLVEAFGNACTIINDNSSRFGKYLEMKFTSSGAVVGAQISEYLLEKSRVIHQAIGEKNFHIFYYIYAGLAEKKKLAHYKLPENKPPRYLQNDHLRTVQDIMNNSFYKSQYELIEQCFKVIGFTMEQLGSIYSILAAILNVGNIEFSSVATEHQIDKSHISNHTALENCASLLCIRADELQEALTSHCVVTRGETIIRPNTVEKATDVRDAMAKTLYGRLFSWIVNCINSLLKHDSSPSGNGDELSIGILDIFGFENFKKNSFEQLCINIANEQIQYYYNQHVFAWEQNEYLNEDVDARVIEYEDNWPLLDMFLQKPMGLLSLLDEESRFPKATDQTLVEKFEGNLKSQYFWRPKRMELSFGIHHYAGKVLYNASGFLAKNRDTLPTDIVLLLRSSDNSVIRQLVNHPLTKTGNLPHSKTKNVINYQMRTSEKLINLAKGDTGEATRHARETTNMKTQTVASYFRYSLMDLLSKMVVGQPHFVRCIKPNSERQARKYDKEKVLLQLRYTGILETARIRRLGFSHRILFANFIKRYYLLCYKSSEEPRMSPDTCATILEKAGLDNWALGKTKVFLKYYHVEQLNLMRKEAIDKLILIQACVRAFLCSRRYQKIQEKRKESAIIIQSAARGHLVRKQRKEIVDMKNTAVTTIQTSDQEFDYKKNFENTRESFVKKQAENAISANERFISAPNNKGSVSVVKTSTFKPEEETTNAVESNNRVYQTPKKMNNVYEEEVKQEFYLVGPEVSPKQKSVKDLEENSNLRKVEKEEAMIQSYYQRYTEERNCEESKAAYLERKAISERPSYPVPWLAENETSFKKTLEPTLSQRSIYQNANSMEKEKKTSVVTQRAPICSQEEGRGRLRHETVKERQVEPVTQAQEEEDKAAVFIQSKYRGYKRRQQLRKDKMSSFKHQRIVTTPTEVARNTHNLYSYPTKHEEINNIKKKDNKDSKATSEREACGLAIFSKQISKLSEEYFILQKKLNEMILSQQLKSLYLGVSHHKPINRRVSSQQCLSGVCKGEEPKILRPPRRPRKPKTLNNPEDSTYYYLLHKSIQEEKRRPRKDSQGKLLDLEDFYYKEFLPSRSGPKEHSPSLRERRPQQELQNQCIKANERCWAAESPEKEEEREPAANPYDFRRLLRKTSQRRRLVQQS
Chain of Dual specificity mitogen-activated protein kinase kinase 1 (Homo sapiens), Q02750 [S218D,S222D] (Q02750 whole entry S218D/S222D): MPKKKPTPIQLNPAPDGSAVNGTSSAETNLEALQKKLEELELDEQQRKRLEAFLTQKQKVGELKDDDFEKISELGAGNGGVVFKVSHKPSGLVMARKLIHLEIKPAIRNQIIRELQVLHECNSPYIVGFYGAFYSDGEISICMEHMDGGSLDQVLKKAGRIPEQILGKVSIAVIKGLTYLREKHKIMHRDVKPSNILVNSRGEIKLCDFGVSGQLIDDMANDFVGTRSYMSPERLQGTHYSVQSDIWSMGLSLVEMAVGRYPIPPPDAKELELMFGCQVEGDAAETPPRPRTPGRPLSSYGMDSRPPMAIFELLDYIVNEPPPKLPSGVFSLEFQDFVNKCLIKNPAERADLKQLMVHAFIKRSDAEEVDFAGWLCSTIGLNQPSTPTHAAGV
Chain of Insulin-like growth factor 1 receptor (P08069 31-736 limits assumed): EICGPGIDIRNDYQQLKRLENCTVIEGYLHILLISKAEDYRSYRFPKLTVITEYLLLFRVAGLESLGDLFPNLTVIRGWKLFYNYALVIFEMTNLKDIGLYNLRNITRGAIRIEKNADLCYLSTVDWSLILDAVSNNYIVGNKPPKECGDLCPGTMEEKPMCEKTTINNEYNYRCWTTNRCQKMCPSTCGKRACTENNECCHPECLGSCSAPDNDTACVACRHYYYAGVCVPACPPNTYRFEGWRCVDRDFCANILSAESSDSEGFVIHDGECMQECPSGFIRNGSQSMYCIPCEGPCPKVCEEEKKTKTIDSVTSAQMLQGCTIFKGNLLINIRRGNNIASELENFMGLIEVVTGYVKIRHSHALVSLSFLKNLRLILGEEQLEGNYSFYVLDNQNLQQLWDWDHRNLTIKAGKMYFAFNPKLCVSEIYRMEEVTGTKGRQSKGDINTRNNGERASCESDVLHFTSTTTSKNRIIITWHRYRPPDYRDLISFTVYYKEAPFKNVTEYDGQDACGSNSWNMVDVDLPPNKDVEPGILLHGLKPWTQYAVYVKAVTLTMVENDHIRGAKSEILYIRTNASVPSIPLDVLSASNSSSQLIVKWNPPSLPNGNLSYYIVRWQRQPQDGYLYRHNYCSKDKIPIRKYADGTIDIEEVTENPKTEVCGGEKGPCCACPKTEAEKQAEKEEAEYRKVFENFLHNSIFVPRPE
Chain of Insulin-like growth factor 1 receptor (P08069 741-1367 limits assumed): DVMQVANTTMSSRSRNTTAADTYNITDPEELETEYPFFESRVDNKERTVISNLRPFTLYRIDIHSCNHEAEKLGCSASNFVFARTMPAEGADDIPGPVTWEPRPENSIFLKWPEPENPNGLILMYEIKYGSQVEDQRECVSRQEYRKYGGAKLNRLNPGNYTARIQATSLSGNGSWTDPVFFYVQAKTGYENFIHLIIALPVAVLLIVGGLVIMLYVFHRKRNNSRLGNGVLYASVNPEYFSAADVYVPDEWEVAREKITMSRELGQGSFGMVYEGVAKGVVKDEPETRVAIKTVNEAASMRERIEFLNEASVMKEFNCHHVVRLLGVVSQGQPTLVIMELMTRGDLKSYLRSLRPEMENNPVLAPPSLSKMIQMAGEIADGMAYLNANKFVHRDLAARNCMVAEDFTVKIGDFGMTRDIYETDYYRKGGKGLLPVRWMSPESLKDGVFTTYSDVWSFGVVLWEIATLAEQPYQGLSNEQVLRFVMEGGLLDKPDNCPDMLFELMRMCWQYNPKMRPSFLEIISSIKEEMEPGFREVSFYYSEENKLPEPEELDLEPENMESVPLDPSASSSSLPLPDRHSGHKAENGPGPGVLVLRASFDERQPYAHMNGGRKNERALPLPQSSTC
Chain of Calcium/calmodulin-dependent protein kinase type 1G (Homo sapiens) (Q96NX5 whole entry): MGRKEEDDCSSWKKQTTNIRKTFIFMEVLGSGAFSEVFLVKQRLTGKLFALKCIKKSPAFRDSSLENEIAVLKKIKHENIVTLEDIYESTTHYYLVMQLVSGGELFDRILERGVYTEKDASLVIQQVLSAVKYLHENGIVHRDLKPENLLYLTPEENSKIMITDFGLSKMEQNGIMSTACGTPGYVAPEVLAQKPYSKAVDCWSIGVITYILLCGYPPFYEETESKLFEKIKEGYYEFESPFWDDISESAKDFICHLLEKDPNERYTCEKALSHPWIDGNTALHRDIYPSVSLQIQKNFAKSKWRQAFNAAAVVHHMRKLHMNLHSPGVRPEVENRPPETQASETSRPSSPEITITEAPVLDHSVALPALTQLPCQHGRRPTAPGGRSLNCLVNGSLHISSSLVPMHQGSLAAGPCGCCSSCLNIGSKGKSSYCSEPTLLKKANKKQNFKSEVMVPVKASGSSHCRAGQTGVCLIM

`Cn1cc(-n2cnc3c(NCc4nc5cc(Cl)c(Cl)cc5[nH]4)nc(N4CCOCC4)nc32)cn1`: the % of inhibition in assay [1] was -20.2%; in [2], -15.4%.
`CN(C)C/C=C/C(=O)Nc1ccc(C(=O)N2CCCC(Nc3ncc(Cl)c(-c4c[nH]c5ccccc45)n3)C2)cc1` (configuration not stated) displayed a % of control in assay [3] of 77%.
Take `O=C(NOC[C@H](O)CO)c1ccc(F)c(F)c1Nc1ccc(I)cc1F`: the % of control in assay [4] amounted to 100%.
In assay [5], `Nc1cnc(N2CCc3cc(S(=O)(=O)Nc4c(F)cc(Cl)cc4F)cc(N4CCCC4=O)c32)nc1` [TP-020n] registered a % of control of 77%.
As for `N#Cc1cccc(-c2c[nH]c3ncnc(N4CCOCC4)c23)c1`, the % of control in [6] was found to be 38%; in assay [7], 74%.
As to `CC[C@@H]1[C@H](F)C(=O)N[C@@H]1COc1nccc2cc(C(N)=O)c(OC)cc12` [ZIMLOVISERTIB], the % of inhibition in assay [8] was 16.5%; in [9], 7.84%.
On to `C=CC(=O)Nc1cccc(C(=O)Nc2ccc(Nc3cc(-c4[nH]c(SC)nc4C)ccn3)cc2)c1`, for which the % of control in assay [10] (at 1 µM) was found to be 90%; in assay [10] (at 5 µM) it was 75%; in assay [11] (at 1 µM), 97%; in [11] (at 5 µM), 108%.
`CC(=O)c1cc(-c2ccccc2OCC2CC2)c2ncccn12` yielded a % of control in assay [12] of 93%.
`CCC(=O)N1CCN(c2ccc(-n3c(=O)ccc4cnc5ccc(-c6cnc7ccccc7c6)cc5c43)cc2C(F)(F)F)CC1` gave a % of control in assay [13] of 100%.
For `O[C@H]1CC[C@H](Nc2ncc3nc(Nc4c(F)cc(F)cc4F)n([C@H]4CCOC4)c3n2)CC1`, in assay [14], the % of control was 100%.
The molecule `COCC(=O)NC/C=C/c1ccc2ncnc(Nc3ccc(Oc4ccc(C)nc4)c(C)c3)c2c1` [CP-724714] returned a % of control in assay [15] of 9.4%.
